Assay results from patent publication US10245261B2, “Substituted indol-5-ol derivatives and their therapeutic applications” (NantBioScience, Inc., priority 2013, dated 2019).

Key:
DRAK1(h) = DRAK1(h) (Homo sapiens, UniProt Q9UEE5); assay: KinaseProfiler kinase assay; assay type: biochemical
CaMKIIδ(h) = CaMKIIδ(h) (Homo sapiens, UniProt Q13557); assay: KinaseProfiler kinase assay; assay type: biochemical
BRK(h) = BRK(h) (Homo sapiens, UniProt Q13882); assay: KinaseProfiler kinase assay; assay type: biochemical
PI3KC2α(h) = PI3KC2α(h) (Homo sapiens, UniProt O00443); assay: KinaseProfiler kinase assay; assay type: biochemical
Chain of PI3KC2α(h) (O00443 whole entry): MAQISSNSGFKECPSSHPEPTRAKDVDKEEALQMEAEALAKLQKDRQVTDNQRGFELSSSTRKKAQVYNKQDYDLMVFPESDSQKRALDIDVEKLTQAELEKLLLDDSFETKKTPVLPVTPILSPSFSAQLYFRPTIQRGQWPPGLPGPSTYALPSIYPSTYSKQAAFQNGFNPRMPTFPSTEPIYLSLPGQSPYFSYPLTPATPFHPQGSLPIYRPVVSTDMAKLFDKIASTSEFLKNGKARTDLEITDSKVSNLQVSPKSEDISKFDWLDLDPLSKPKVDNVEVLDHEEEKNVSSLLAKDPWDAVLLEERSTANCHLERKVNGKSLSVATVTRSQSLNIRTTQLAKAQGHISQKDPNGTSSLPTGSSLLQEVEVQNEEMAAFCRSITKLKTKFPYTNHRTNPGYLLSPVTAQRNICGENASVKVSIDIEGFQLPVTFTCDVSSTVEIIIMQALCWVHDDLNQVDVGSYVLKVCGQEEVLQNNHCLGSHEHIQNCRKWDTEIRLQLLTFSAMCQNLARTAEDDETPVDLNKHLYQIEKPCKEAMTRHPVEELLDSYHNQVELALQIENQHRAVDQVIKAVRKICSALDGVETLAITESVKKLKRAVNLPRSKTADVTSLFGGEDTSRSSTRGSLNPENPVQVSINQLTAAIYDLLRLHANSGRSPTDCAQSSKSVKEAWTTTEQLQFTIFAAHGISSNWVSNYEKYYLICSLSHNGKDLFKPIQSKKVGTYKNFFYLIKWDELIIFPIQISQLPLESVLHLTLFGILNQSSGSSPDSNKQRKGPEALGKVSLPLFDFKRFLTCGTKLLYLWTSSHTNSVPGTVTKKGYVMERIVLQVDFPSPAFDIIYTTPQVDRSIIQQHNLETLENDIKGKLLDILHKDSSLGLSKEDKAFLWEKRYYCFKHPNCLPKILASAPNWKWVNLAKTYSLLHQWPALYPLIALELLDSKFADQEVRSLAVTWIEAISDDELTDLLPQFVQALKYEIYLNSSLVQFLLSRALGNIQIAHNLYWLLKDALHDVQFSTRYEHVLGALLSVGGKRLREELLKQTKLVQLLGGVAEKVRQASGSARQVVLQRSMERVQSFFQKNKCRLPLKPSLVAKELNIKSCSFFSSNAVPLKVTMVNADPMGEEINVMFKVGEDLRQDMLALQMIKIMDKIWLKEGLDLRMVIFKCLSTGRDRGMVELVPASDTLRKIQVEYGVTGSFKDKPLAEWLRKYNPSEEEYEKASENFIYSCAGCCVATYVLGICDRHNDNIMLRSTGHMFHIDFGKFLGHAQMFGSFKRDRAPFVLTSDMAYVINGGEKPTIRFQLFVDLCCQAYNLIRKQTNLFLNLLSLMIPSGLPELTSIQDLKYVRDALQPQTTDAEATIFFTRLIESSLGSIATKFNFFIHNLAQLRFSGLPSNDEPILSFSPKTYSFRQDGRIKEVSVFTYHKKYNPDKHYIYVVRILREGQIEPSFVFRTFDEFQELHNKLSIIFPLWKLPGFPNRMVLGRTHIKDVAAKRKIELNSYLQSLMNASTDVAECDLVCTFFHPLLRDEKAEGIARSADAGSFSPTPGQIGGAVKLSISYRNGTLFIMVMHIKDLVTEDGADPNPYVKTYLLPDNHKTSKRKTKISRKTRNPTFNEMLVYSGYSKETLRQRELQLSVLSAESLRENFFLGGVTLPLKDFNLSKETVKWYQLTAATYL

Abl (Q252H) (h) = Abl (Q252H) (h) (Homo sapiens, UniProt P00519, Q252H); assay: KinaseProfiler kinase assay; assay type: biochemical
Abl(T315I)(h) = Abl(T315I)(h) (Homo sapiens, UniProt P00519, T315I); assay: KinaseProfiler kinase assay; assay type: biochemical
Abl (H396P) (h) = Abl (H396P) (h) (Homo sapiens, UniProt P00519, H396P); assay: KinaseProfiler kinase assay; assay type: biochemical
Ret (V804L)(h) = Ret (V804L)(h) (Homo sapiens, UniProt P07949, V804L); assay: KinaseProfiler kinase assay; assay type: biochemical
Chain of Ret (V804L)(h) (P07949 29-1114 V804L): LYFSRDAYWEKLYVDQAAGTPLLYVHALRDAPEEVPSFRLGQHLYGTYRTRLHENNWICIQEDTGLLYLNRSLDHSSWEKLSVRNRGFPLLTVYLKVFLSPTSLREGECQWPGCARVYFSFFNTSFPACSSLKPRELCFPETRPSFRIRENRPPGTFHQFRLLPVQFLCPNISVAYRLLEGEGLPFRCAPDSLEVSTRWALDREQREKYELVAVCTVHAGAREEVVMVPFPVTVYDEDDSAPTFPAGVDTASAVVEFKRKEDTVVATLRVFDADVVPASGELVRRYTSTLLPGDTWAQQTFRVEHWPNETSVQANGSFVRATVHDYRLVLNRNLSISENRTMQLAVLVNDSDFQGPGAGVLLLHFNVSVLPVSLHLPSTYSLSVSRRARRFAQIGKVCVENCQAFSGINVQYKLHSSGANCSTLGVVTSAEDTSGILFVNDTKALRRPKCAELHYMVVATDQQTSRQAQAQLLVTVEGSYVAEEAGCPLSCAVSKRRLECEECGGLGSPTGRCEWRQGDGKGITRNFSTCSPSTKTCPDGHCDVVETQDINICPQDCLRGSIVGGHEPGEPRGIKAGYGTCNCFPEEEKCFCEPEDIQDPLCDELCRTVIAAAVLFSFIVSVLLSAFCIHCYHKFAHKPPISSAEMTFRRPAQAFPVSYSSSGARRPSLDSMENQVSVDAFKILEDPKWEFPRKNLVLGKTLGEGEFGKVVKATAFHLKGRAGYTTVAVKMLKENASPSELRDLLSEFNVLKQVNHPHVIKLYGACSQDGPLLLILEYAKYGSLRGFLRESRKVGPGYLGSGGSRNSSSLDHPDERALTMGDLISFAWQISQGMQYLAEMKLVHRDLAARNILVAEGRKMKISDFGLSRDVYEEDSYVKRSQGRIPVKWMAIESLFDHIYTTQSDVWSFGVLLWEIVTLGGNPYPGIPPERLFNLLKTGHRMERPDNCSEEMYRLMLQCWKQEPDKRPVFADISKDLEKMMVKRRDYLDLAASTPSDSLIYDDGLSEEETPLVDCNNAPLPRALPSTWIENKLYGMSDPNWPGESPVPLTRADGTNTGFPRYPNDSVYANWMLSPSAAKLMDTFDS
Method in brief: (§1)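 Each enzyme was assayed radiometrically: 40 min room-temperature reaction with [γ-33P]ATP and 10 mM Mg acetate, acid-stopped, filtered, scintillation-counted.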

Ret(V804M)(h) = Ret(V804M)(h) (Homo sapiens, UniProt P07949, V804M); assay: KinaseProfiler kinase assay; assay type: biochemical
Chain of Ret(V804M)(h) (P07949 29-1114 V804M): as the sequence (P07949 29-1114 V804L) above, with L776M counted along it
Method in brief: as §1

[1] = system: human K562 chronic myelogenous leukemia (CML) xenograft; assay: CML xenograft model in female SCID mice; assay type: in vivo, mouse
Description: The objective of the second study was to evaluate antitumor activities of novel multiple-kinase inhibitor NTW-3475 in human K562 chronic myelogenous leukemia (CML) xenograft model in female SCID mice.
Four to six animals were randomly assigned to study groups. Each animal was weighed, and then injected subcutaneously in the left and right flank area with 0.1 ml of 8.0×10^7 K562 cells per mL.
Each test or control animal was on a 5-day on, two-day off for two cycles treatment schedule. Tumor growth was measured with a digital hand held caliper twice weekly (once tumor emerges) prior to the first dosing and then two to three times weekly until euthanized. Animals were weighed prior to tumor cell injection, prior to dosing, two to three times weekly with tumor growth measurements, and prior to euthanasia.
This example illustrated antitumor activities of Compound 10 and 11 in human K562 chronic myelogenous leukemia (CML) xenograft model in female SCID mice.
On the appropriate days, each animal in an appropriate group will receive a specific amount of test article either at 75 or 100 mg/kg, and the dosing volume is 10 ml/kg by oral gavage as indicated. Dosing schedule will be once daily for 10 days (qd×10, 5 days on and 2 days off for 2 cycles).

FGFR4(h) = FGFR4(h) (Homo sapiens, UniProt P22455); assay: KinaseProfiler kinase assay; assay type: biochemical
Chain of FGFR4(h) (P22455 22-802): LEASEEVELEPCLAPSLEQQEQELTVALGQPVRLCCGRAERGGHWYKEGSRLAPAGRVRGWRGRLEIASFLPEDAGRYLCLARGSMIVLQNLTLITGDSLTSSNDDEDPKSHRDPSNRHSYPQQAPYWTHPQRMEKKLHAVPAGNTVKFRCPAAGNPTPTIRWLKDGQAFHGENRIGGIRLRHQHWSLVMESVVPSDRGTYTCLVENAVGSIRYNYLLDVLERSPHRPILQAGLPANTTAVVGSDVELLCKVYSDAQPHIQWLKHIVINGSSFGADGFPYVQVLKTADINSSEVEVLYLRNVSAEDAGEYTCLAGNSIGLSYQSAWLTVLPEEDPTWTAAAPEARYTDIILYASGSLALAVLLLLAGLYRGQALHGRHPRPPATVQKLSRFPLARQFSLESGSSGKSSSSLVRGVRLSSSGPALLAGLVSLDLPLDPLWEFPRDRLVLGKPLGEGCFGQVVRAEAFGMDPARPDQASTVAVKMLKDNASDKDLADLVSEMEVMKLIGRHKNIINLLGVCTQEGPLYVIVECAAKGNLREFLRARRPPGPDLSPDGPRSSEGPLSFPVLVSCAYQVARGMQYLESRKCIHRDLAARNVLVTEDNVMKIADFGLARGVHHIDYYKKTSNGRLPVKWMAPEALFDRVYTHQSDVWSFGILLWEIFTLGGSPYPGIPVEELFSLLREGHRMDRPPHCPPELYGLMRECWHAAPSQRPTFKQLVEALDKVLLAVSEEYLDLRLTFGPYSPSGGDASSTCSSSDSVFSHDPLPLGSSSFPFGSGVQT

Flt4(h) = Flt4(h) (Homo sapiens, UniProt P35916); assay: KinaseProfiler kinase assay; assay type: biochemical
Chain of Flt4(h) (P35916 25-1363): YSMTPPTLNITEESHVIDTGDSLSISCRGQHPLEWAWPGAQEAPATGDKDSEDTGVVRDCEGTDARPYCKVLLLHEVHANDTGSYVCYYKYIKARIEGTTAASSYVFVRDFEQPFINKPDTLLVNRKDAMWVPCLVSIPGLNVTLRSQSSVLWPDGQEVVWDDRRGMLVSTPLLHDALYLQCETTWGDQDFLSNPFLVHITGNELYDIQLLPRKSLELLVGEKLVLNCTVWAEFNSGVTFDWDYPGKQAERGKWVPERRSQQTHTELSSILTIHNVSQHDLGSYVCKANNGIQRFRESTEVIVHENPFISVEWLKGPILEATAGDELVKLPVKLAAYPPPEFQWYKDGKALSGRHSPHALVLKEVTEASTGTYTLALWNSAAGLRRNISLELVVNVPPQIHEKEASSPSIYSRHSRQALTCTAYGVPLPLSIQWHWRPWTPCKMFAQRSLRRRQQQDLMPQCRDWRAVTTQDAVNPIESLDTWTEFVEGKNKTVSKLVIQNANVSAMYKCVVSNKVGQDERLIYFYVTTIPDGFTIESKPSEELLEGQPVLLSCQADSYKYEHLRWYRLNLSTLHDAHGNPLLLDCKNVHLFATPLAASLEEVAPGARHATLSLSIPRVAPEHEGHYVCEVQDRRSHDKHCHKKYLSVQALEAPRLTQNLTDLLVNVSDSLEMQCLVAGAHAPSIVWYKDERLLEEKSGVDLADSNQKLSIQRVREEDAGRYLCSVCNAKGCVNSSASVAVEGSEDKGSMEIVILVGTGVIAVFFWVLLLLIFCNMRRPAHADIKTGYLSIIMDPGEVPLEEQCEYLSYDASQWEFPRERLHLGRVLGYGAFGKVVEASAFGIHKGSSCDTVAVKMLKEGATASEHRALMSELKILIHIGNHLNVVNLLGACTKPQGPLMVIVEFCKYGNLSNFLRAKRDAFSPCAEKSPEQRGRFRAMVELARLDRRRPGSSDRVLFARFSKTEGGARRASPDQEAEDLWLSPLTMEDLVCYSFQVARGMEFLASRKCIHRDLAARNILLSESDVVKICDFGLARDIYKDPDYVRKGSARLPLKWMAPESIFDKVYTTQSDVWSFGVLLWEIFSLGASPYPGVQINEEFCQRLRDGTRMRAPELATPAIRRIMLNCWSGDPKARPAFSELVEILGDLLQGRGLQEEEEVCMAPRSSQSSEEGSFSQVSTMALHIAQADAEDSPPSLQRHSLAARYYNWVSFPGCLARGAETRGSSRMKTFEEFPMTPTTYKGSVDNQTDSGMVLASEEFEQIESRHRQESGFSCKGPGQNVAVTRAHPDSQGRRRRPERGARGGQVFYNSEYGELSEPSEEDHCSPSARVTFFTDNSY

[2] = molecular target: PI3 Kinase (p110α(H1047R)/p85α)(h) (Homo sapiens, UniProt P42336, H1047R); assay: KinaseProfiler kinase assay; assay type: biochemical
mTOR(h) = mTOR(h) (Homo sapiens, UniProt P42345); assay: KinaseProfiler kinase assay; assay type: biochemical
CLK2(h) = CLK2(h) (Homo sapiens, UniProt P49760); assay: KinaseProfiler kinase assay; assay type: biochemical
[3] = system: TT human Thyroid carcinoma xenograft; assay: Thyroid carcinoma xenograft; assay type: in vivo, mouse
Description: This example assesses Compound 10, 53 and 88's anti-tumor activity using a SCID mouse xenograft models for TT human Thyroid carcinoma xenograft (FIGS. 65 to 69.)
On the appropriate days, each animal in an appropriate group will receive a specific amount of Compound 10 either at 50 or 100 mg/kg, and the dosing volume is 10 ml/kg by oral gavage as indicated. Dosing schedule will be once daily for 30 days.
On the appropriate days, each animal in an appropriate group will receive a specific amount of Compound 53 either at 50 or 100 mg/kg, and the dosing volume is 10 ml/kg by oral gavage as indicated. Dosing schedule will be once daily for 30 days.
Dosing schedule will be once daily for 30 days.

CDK5/p25(h) = CDK5/p25(h) (Homo sapiens, UniProt Q00535); assay: KinaseProfiler kinase assay; assay type: biochemical
Abl(Y253F)(h) = Abl(Y253F)(h) (Homo sapiens, UniProt P00519, Y253F); assay: KinaseProfiler kinase assay; assay type: biochemical

Which results are given for `Cc1cc2c(F)c(Oc3nc(Nc4cc(C5CC5)[nH]n4)cc(N4CCN(C)CC4)n3)ccc2[nH]1` [Compound 10]?
inhibition at 0.1 µM (DRAK1(h)): 36%; inhibition at 0.1 µM (CaMKIIδ(h)): -6%; inhibition at 0.1 µM (BRK(h)): 54%; inhibition at 0.1 µM (PI3KC2α(h)): 15%; inhibition at 0.1 µM (Abl (Q252H) (h)): 99%; inhibition at 0.1 µM (Abl(T315I)(h)): 101%; inhibition at 0.1 µM (Abl (H396P) (h)): 99%; inhibition at 0.1 µM (Ret (V804L)(h)): 103%; inhibition at 0.1 µM (Ret(V804M)(h)): 96%; anti-tumor effect [1]: strong anti-tumor effect; body weight change [1]: no body weight lost; inhibition at 0.1 µM (FGFR4(h)): 88%; inhibition at 0.1 µM (Flt4(h)): 100%; inhibition at 0.1 µM [2]: -8%; inhibition at 0.1 µM (mTOR(h)): 25%; inhibition at 0.1 µM (CLK2(h)): 29%; anti-tumor effect [3]: anti-tumor effect; inhibition at 0.1 µM (CDK5/p25(h)): 24%; inhibition at 0.1 µM (Abl(Y253F)(h)): 103%

Which results are given for `Cc1cc2c(F)c(Oc3nc(Nc4cc(C5CC5)[nH]n4)cc(N4CCNCC4)n3)ccc2[nH]1` [Compound 11, N-(5-cyclopropyl-1H-pyrazol-3-yl)-2-((4-fluoro-2-methyl-1H-indol-5-yl)oxy)-6-(piperazin-1-yl)pyrimidin-4-amine]?
inhibition at 0.1 µM (DRAK1(h)): 42%; inhibition at 0.1 µM (CaMKIIδ(h)): 6%; inhibition at 0.1 µM (BRK(h)): 73%; inhibition at 0.1 µM (PI3KC2α(h)): -5%; inhibition at 0.1 µM (Abl (Q252H) (h)): 102%; inhibition at 0.1 µM (Abl(T315I)(h)): 102%; inhibition at 0.1 µM (Abl (H396P) (h)): 102%; inhibition at 0.1 µM (Ret (V804L)(h)): 102%; inhibition at 0.1 µM (Ret(V804M)(h)): 101%; anti-tumor effect [1]: strong anti-tumor effect; body weight change [1]: no body weight lost; inhibition at 0.1 µM (FGFR4(h)): 78%; inhibition at 0.1 µM (Flt4(h)): 100%; inhibition at 0.1 µM [2]: -1%; inhibition at 0.1 µM (mTOR(h)): 18%; inhibition at 0.1 µM (CLK2(h)): -3%; inhibition at 0.1 µM (CDK5/p25(h)): 26%; inhibition at 0.1 µM (Abl(Y253F)(h)): 100%

How did the IC50 (Abl (Q252H) (h); Abl (Q252H)) turn out when `C/C=C/c1cc(Nc2cc(N3CCN(C)CC3)nc(Oc3ccc4[nH]c(C)cc4c3F)n2)n[nH]1` [Compound 53] was run?
The IC50 was 0.5 nM.

And the IC50 (Abl(T315I)(h); Abl(T315I))?
Its IC50 is 0.5 nM.

And the IC50 (Abl (H396P) (h); Abl (H396P))?
The IC50 was < 0.1 nM.

What about the IC50 (Ret (V804L)(h); Ret(V804L mutation)) of the same molecule?
The IC50 was 10 nM.

And the IC50 (Ret(V804M)(h); Ret(V804M mutation))?
Its IC50 is 6 nM.

What about the IC50 (FGFR4(h); FGFR4) of the same molecule?
Its IC50 is 13 nM.

What about the IC50 (Flt4(h); VEGFR3) of the same molecule?
The IC50 was 2 nM.

What about the IC50 (Abl(Y253F)(h); Abl (Y253F)) of the same molecule?
Its IC50 is 0.5 nM.

With `C/C=C/c1cc(Nc2cc(N3CCN(CCO)CC3)nc(Oc3cc(F)c4[nH]c(C)cc4c3F)n2)n[nH]1` [Compound 88] as the molecule, how does the anti-tumor effect [3] read?
Its anti-tumor effect is “Inhibits Tumor Growth”.

Which “kinase inhibition of T315I abl mutant” value (Abl(T315I)(h)) does the source give for `C/C=C/c1cc(Nc2cc(N3CCN(C)CC3)nc(Oc3cc(F)c4[nH]c(C)cc4c3F)n2)n[nH]1` [NTW-3456] here?
Its value is “inhibits”.

What about the anti-tumor effect [1] of the same molecule?
The anti-tumor effect was “significant anti-tumor activity”.

What about the anti-tumor effect [3] of the same molecule?
The anti-tumor effect was “significant anti-tumor activity”.
